In US7816353B2 (Exelixis, Inc., priority 2003, dated 2010):

Biological target: T1, p70S6K (Homo sapiens, UniProt P23443, T412E)
T1 construct: human p70S6 kinase domain residues 1-421, containing a T412E mutation; made in house
Experiment: p70S6 Kinase Assay (Luciferase-Coupled Chemiluminescent Kinase assay, LCCA)
Type: biochemical
Conditions: human p70S6 kinase domain residues 1-421, T412E; 5 μM ATP; read-out: p70S6K IC50
Procedure: Kinase activity and compound inhibition are investigated using one or more of the three assay formats described below. The ATP concentrations for each assay are selected to be close to the Michaelis-Menten constant (KM) for each individual kinase. Dose-response experiments are performed at 10 different inhibitor concentrations in a 384-well plate format. […] Y=Min+(Max−Min)/(1+(X/IC50)^H) Equation (2) p70S6 Kinase Assay
Biochemical activity of p70S6 kinase was assessed using a Luciferase-Coupled Chemiluminescent Kinase assay (LCCA) format. Kinase activity was measured as the percent ATP remaining following the kinase reaction. Remaining ATP was detected by luciferase-luciferin-coupled chemiluminescence. […] The mixture is incubated at ambient temperature for 2 hours after which 20 μL luciferase-luciferin mix is added and the chemiluminescent signal read using a Wallac Victor^2 reader.

T1 sequence (P23443 1-421 T412E): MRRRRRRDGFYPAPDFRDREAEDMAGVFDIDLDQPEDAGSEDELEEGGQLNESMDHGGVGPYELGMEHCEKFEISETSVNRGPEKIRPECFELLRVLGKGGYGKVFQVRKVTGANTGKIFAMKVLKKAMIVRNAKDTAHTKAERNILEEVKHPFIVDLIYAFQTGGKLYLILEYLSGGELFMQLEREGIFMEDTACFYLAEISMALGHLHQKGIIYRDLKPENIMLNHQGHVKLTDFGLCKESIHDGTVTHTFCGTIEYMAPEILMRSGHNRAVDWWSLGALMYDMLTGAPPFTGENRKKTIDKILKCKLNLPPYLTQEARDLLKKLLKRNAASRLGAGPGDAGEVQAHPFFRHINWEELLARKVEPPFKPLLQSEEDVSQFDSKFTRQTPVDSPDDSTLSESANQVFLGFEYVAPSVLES

Row | Structure (SMILES) | IC50 [µM]
1 | C[C@H](Nc1nc(N)nc(O)c1C#N)C(=O)Nc1cccc(C(F)(F)F)c1 [Example 99, N^2-(2-amino-5-cyano-6-hydroxypyrimidin-4-yl)-N-[3-(trifluoromethyl)phenyl]-L-alaninamide] | > 2
2 | CSc1nc(N)nc(N[C@@H](CCCCN)C(=O)Nc2cccc(C(F)(F)F)c2)c1C#N [Example 114, N^2-[2-amino-5-cyano-6-(methylthio)pyrimidin-4-yl]-N-[3-(trifluoromethyl)phenyl]-L-lysinamide] | > 2
3 | CSc1nc(N)nc(N[C@@H](CCCCNC(=O)OC(C)(C)C)C(=O)Nc2cccc(C(F)(F)F)c2)c1C#N [Example 103, N^2-[2-amino-5-cyano-6-(methylthio)pyrimidin-4-yl]-N-6-{[(1,1-dimethylethyl)oxy]carbonyl}-N-[3-(trifluoromethyl)phenyl]-L-lysinamide] | > 2
4 | COc1nc(N)nc(N[C@@H](CN(C)C)C(=O)Nc2cccc(C(F)(F)F)c2)c1C#N [Example 178, N~2~-[2-amino-5-cyano-6-(methyloxy)pyrimidin-4-yl]-3-(dimethylamino)-N-[3-(trifluoromethyl)phenyl]-L-alaninamide] | > 2
5 | COCCOC(=O)NCCC[C@H](Nc1nc(N)nc(SC)c1C#N)C(=O)Nc1cccc(C(F)(F)F)c1 [Example 126, 2-(methyloxy)ethyl ((4S)-4-{[2-amino-5-cyano-6-(methylthio)pyrimidin-4-yl]amino}-5-oxo-5-{[3-(trifluoromethyl)phenyl]amino}pentyl)carbamate] | > 2
6 | N#Cc1c(SCC(=O)Nc2cccc(C(F)(F)F)c2)nc(N)nc1N1CCOCC1 [Example 84, 2-[(2-amino-5-cyano-6-morpholin-4-ylpyrimidin-4-yl)thio]-N-[3-(trifluoromethyl)phenyl]acetamide] | > 2
7 | CSc1nc(N)nc(N[C@@H](CCCN)C(=O)Nc2cccc(C(F)(F)F)c2)c1C#N [Example 86, N^2-[2-amino-5-cyano-6-(methylthio)pyrimidin-4-yl]-N-[3-(trifluoromethyl)phenyl]-L-ornithinamide] | > 2
8 | COc1nc(N)nc(N(C)[C@@H](C)C(=O)Nc2cccc(Br)c2)c1C#N [Example 181, N~2~-[2-amino-5-cyano-6-(methyloxy)pyrimidin-4-yl]-N-(3-bromophenyl)-N~2~-methyl-L-alaninamide] | > 2
9 | C[C@H](Nc1nc(N)nc(N[C@@H](C)C(=O)Nc2cccc(C(F)(F)F)c2)c1C#N)C(=O)Nc1cccc(C(F)(F)F)c1 [Example 108, 2-{2-amino-5-cyano-6[1-(3-trifluoromethyl-phenylcarbamoyl)-1S-ethylamino]-pyrimidin-4-ylamino}N-(3-trifluoromethyl-phenyl)-2S-propionamide] | > 2
10 | CSc1nc(N)nc(SCC(=O)Nc2cc(C(F)(F)F)cc(C(F)(F)F)c2)c1C#N [Example 77, 2-{[2-amino-5-cyano-6-(methylthio)pyrimidin-4-yl]thio}-N-[3,5-bis(trifluoromethyl)phenyl]acetamide] | > 2
11 | CCOc1nc(N)nc(N[C@@H](CCC(=O)OC)C(=O)Nc2cccc(C(F)(F)F)c2)c1C#N [Example 170, Methyl N~2~-[2-amino-5-cyano-6-(ethyloxy)pyrimidin-4-yl]-N-[3-(trifluoromethyl)phenyl]-L-alpha-glutaminate] | > 2
12 | CSc1nc(N)nc(N(C)[C@@H](C)C(=O)Nc2cccc(C(F)(F)F)c2)c1C#N [Example 91, N^2-[2-amino-5-cyano-6-(methylthio)pyrimidin-4-yl]-N^2-methyl-N-[3-(trifluoromethyl)phenyl]-L-alaninamide] | > 2
13 | CCOc1nc(N)nc(N(C)[C@@H](CCCCNC(=O)OCc2ccccc2)C(=O)Nc2cccc(C(F)(F)F)c2)c1C#N [Example 162, N~2~-[2-amino-5-cyano-6-(ethyloxy)pyrimidin-4-yl]-N~2~-methyl-N~6~-{[(phenylmethyl)oxy]carbonyl}-N-[3-(trifluoromethyl)phenyl]-L-lysinamide] | > 2
14 | CSc1nc(N)nc(N[C@@H](CCCNC(=N)N)C(=O)Nc2cccc(C(F)(F)F)c2)c1C#N [Example 117, N^2-[2-amino-5-cyano-6-(methylthio)pyrimidin-4-yl]-N-[3-(trifluoromethyl)phenyl]-L-argininamide] | > 2

The remaining lines, values ahead:

Row | IC50 [µM] | Structure (SMILES)
15 | 0.5 to 2 | COc1ccc(C(F)(F)F)cc1NC(=O)CSc1nc(N)nc(SC)c1C#N [Example 54, 2-{[2-mino-5-cyano-6-(methylthio)pyrimidin-4-yl]thio}-N-[2-(methyloxy)-5-(trifluoromethyl)phenyl]acetamide]
16 | > 2 | CCOc1nc(N)nc(N[C@@H](C)C(=O)Nc2cc(C(=O)NCCCN3CCCC3)cc(C(F)(F)F)c2)c1C#N [Example 158, 3-({N-[2-amino-5-cyano-6-(ethyloxy)pyrimidin-4-yl]-L-alanyl}amino)-N-(3-pyrrolidin-1-ylpropyl)-5-(trifluoromethyl)benzamide]
17 | > 2 | CCN(CC)CCOc1cccc(NC(=O)[C@H](C)Nc2nc(N)nc(SC)c2C#N)c1 [Example 92, N^2-[2-amino-5-cyano-6-(methylthio)pyrimidin-4-yl]-N-(3-{[2-(diethylamino)ethyl]oxy}phenyl)-L-alaninamide]
18 | > 2 | CCN(CC)CCNc1cc(NC(=O)[C@H](C)Nc2nc(N)nc(SC)c2C#N)cc(C(F)(F)F)c1 [Example 106, N^2-[2-amino-5-cyano-6-(methylthio)pyrimidin-4-yl]-N-[3-{[2-(diethylamino)ethyl]amino}-5-(trifluoromethyl)phenyl]-L-alaninamide]
19 | > 2 | CSc1nc(N)nc(N[C@@H](C)C(=O)Nc2cccc([N+](=O)[O-])c2)c1C#N [Example 113, N^2-[2-amino-5-cyano-6-(methylthio)pyrimidin-4-yl]-N-(3-nitrophenyl)-L-alaninamide]
20 | 0.5 to 2 | CSc1nc(N)nc(SCC(=O)Nc2cc(C(F)(F)F)ccc2N)c1C#N [Example 62]
21 | > 2 | CCOc1nc(N)nc(N(C)[C@@H](C)C(=O)Nc2cccc(C(F)(F)F)c2)c1C#N [Example 121, N^2-[2-amino-5-cyano-6-(ethyloxy)pyrimidin-4-yl]-N^2-methyl-N-[3-(trifluoromethyl)phenyl]-L-alaninamide]
22 | > 2 | CSc1nc(N)nc(N2CCC[C@@H]2C(=O)Nc2cccc(C(F)(F)F)c2)c1C#N [Example 85, (R)-1-[2-amino-5-cyano-6-(methylthio)pyrimidin-4-yl]-N-[3-(trifluoromethyl)phenyl]prolinamide]
23 | > 2 | CCOc1nc(N)nc(N[C@@H](CCCCN(C)C)C(=O)Nc2cccc(C(F)(F)F)c2)c1C#N [Example 156, N~2~-[2-amino-5-cyano-6-(ethyloxy)pyrimidin-4-yl]-N~6~,N~6~-dimethyl-N-[3-(trifluoromethyl)phenyl]-L-lysinamide]
24 | > 2 | CSc1nc(N)nc(N(C)CC(=O)Nc2cccc(C(F)(F)F)c2)c1C#N [Example 72, N^2-[2-amino-5-cyano-6-(methylthio)pyrimidin-4-yl]-N^2-methyl-N-[3-(trifluoromethyl)phenyl]glycinamide]
25 | > 2 | CSc1nc(N)nc(N(C)[C@@H](CCCCNC(=O)OCc2ccccc2)C(=O)Nc2cccc(C(F)(F)F)c2)c1C#N [Example 153, N~2~-[2-amino-5-cyano-6-(methylthio)pyrimidin-4-yl]-N~2~-methyl-N~6~-{[(phenylmethyl)oxy]carbonyl}-N-[3-(trifluoromethyl)phenyl]-L-lysinamide]
26 | > 2 | C[C@H](Nc1nc(N)nc(OCCN(C)C)c1C#N)C(=O)Nc1cccc(C(F)(F)F)c1 [Example 102, N^2-(2-amino-5-cyano-6-{[2-(dimethylamino)ethyl]oxy}pyrimidin-4-yl)-N-[3-(trifluoromethyl)phenyl]-L-alaninamide]
27 | 0.05 to 0.5 | Nc1nc(SCC(=O)Nc2cccc(C(F)(F)F)c2)c(C=O)c(Sc2ccccc2)n1 [Example 51, 2-{[2-amino-5-formyl-6-(phenylthio)pyrimidin-4-yl]thio}-N-[3-(trifluoromethyl)phenyl]acetamide]
28 | > 2 | CSc1nc(N)nc(N[C@@H](CCCNS(C)(=O)=O)C(=O)Nc2cccc(C(F)(F)F)c2)c1C#N [Example 198, N~2~-[2-amino-5-cyano-6-(methylthio)pyrimidin-4-yl]-N~5~-(methylsulfonyl)-N-[3-(trifluoromethyl)phenyl]-L-ornithinamide]
29 | > 2 | COCCNc1nc(N[C@@H](C)C(=O)Nc2cccc(C(F)(F)F)c2)c(C#N)c(SC)n1 [Example 116]
30 | 0.5 to 2 | CSc1nc(N)nc(SCC(=O)Nc2cc(C(F)(F)F)ccc2Cl)c1C#N [Example 55, 2-{[2-amino-5-cyano-6-(methylthio)pyrimidin-4-yl]thio}-N-[2-chloro-5-(trifluoromethyl)phenyl]acetamide]
31 | 0.05 to 0.5 | CSc1nc(N)nc(N[C@@H](CCC(N)=O)C(=O)Nc2cccc(C(F)(F)F)c2)c1C#N [Example 139]
32 | 0.05 to 0.5 | CSc1nc(N)nc(OCC(=O)Nc2cccc(C(F)(F)F)c2)n1 [Example 47, 2-{[4-amino-6-(methylthio)-1,3,5-triazin-2-yl]oxy}-N-[3-(trifluoromethyl)phenyl]acetamide]
33 | 0.5 to 2 | CNc1nc(NCC(=O)Nc2cccc(C(F)(F)F)c2)c(C#N)c(SC)n1 [Example 65, N^2-[5-cyano-2-(methylamino)-6-(methylthio)pyrimidin-4-yl]-N-[3-(trifluoromethyl)phenyl]glycinamide]
34 | 0.05 to 0.5 | CSc1nc(N)nc(N[C@@H](CCCN2CCOCC2)C(=O)Nc2cccc(C(F)(F)F)c2)c1C#N [Example 143, N~2~-[2-amino-5-cyano-6-(methylthio)pyrimidin-4-yl]-5-morpholin-4-yl-N-[3-(trifluoromethyl)phenyl]-L-norvalinamide]
